Patent US20250387322A1, “DRUG DELIVERY AGENTS FOR PREVENTION OR TREATMENT OF PULMONARY DISEASE” (UNIVERSITY INDUSTRY FOUNDATION, YONSEI UNIVERSITY WONJU …, priority 2018, published 2025)

Tests used:
[1] = in vivo; cited from earlier work
[2] = test system: pulmonary fibrosis animal model; experiment: Bleomycin (BLM) pulmonary fibrosis model: histopathology, immunohistochemistry, micro-CT; type: in vivo; conditions: FIG. 15A
Source text: FIG. 15A illustrates an effect of nintedanib-loaded PLGA disc particles according to one embodiment of the present disclosure, and FIGS. 15B to 15E illustrate experimental results according to each comparison group. […] FIGS. 15A to 15E illustrate results obtained by evaluating tissue morphology and degrees of inflammation and fibrosis through histopathological and immunohistochemical changes. Also, a scale bar in FIG. 15A is 100 μm. […] At this time, Nib is orally administered in the BLM and Nib administered group.

[3] = in vivo; cited from earlier work; remark: listed apart in the source
[4] = test system: lung cancer metastasis model; experiment: Optical imaging of carrier/drug distribution in lung cancer metastasis model; type: in vivo
Protocol: FIG. 9 is an optical microscope image of major organs 3 hours after injecting a lung disease drug delivery carrier according to one Example of the present disclosure and Comparative Example into a lung cancer metastasis model. A GFP filter image may identify the presence or absence of cancer and a location thereof by labeling cancer cells with GFP (green fluorescent protein).
FIG. 10 is an optical microscope image of a lung cancer metastasis model injected with a lung disease drug delivery carrier according to one Example of the present disclosure.
FIG. 18A is an image of photographing the locations of cancer tumor and the locations of an injected DOX-DPP (doxorubicin-loaded disc-shaped drug delivery carrier) in an animal model, and FIG. 18B illustrates comparison of the locations of cancer tumor in major organs and amounts of doxorubicin alone (free DOX) or DOX-DPP in major organs. In this regard, the scale bar in FIG. 18A means 5 mm, and the scale bar in FIG. 18B means 20 mm. In addition, the cancer is a cancer cell expressing a GFP green fluorescent protein.

[5] = test system: C57BL/6 mice with lung cancer

CCNC(=O)[C@@H]1CCCN1C(=O)[C@H](CCCNC(=N)N)NC(=O)[C@H](CC(C)C)NC(=O)[C@@H](CC(C)C)NC(=O)[C@H](Cc1ccc(O)cc1)NC(=O)[C@H](CO)NC(=O)[C@H](Cc1c[nH]c2ccccc12)NC(=O)[C@H](Cc1c[nH]cn1)NC(=O)[C@@H]1CCC(=O)N1 [Leuprolide]
bioavailability compared to the subcutaneous route [1]: 50%

COC(=O)c1ccc2c(c1)NC(=O)/C2=C(\Nc1ccc(N(C)C(=O)CN2CCN(C)CC2)cc1)c1ccccc1 [Nib, nintedanib]
inflammatory response and fibrous mass (histopathology) [2]: an inflammatory response is shown and the formation of a dense fibrous mass is shown

Cc1ccc(=O)n(-c2ccccc2)c1 [pirfenidone]
bioavailability [3]: 4.7%

COc1cccc2c1C(=O)c1c(O)c3c(c(O)c1C2=O)C[C@@](O)(C(=O)CO)C[C@@H]3O[C@H]1C[C@H](N)[C@H](O)[C@H](C)O1 [Comparative Example 2, doxorubicin]
accumulation in major organs ([4]; 3 hours after injecting, lung cancer metastasis model, FIG. 9): accumulated in the liver and kidneys in addition to the lungs | distribution of drug in major organs ([4]; animal model with GFP-expressing cancer, FIGS. 18A, 18B): the drug is distributed even in major organs | metastatic tumor nodules in lung ([5]; FIG. 19B): more metastatic tumor nodules appeared | cardiac toxicity ([5]; long-period administration): cardiac toxicity appears | inflammation in heart and kidney ([5]; organ tissue images, FIG. 20): strong inflammatory responses occur in the heart and kidney
